# Tests used:
# P388 = experiment: Inhibitory concentration of compound for P-388 Leukemia cell culture; format: functional; conditions: Mus musculus, read-out: ED50 (the source's name)
# MT2 [1] = experiment: Effective concentration that increases formazan production in infected MT-2 cells; format: functional, cell-based; conditions: Homo sapiens
# MT2 [2] = experiment: Inhibitory concentration that reduces formazan production in uninfected MT-2 cells.; conditions: Homo sapiens
# [3] = Therapeutic index for the compound was determined (IC50/EC50); conditions: read-out: TI
# CCRF-CEM [4] = experiment: Percent reduction in p24 gag expression in CEM cells; format: functional, Homo sapiens
# CCRF-CEM [5] = experiment: Inhibitory effect against synthesis of p24 gag protein in CEM cells.; format: functional, Homo sapiens
Compound,EC50 (P388),EC50 (MT2 [1]),IC50 (MT2 [2]),selectivity ratio [3],Reduction (CCRF-CEM [4]),p24 synthesis (CCRF-CEM [5])
Nc1nc(N)c2ncn(C3C=CC(CO)C3)c2n1 (stereo not given),> 100 µg/mL,4.7 µg/mL,> 125 µg/mL,> 26.6,–,–
Nc1nc(N)c2nnn(C3C=CC(CO)C3)c2n1 (stereo not given),> 100 µg/mL,–,–,–,–,–
Nc1nc(O)c2nnn(C3C=CC(CO)C3)c2n1 (stereo not given),4.5 µg/mL,–,–,–,–,–
Nc1nc(Cl)c2ncn(C3CCC(CO)C3)c2n1 (stereo not given),> 100 µg/mL,> 100 µg/mL,> 100 µg/mL,–,–,–
Nc1nc(O)c2nnn(C3CCC(CO)C3)c2n1 (stereo not given),51 µg/mL,–,–,–,–,–
Nc1nc(Cl)c2nnn(C3C=CC(CO)C3)c2n1 (stereo not given),1 µg/mL,–,–,–,–,–
Nc1nc(N)c2nnn(C3CCC(CO)C3)c2n1 (stereo not given),> 100 µg/mL,–,–,–,–,–
Nc1nc(Cl)c2nnn(C3CCC(CO)C3)c2n1 (stereo not given),18 µg/mL,–,–,–,–,–
Nc1nc(Cl)c2ncn(C3C=CC(CO)C3)c2n1 (stereo not given),75 µg/mL,0.4 µg/mL,6.97 µg/mL,17.3,–,–
Nc1nc(O)c2ncn(C3CCC(CO)C3)c2n1 (stereo not given),> 100 µg/mL,> 100 µg/mL,> 100 µg/mL,–,–,–
Nc1nc(N)c2ncn(C3CCC(CO)C3)c2n1 (stereo not given),80 µg/mL,16.7 µg/mL,> 100 µg/mL,> 5.9,–,–
Nc1nc2c(ncn2[C@H]2C=C[C@@H](CO)C2)c(=O)[nH]1 [CARBOVIR],> 100 µg/mL,0.19 µg/mL,41.8 µg/mL,220,>99.97%,28 ng/mL
Nc1ccn([C@H]2CC[C@@H](CO)O2)c(=O)n1 [ZALCITABINE],–,0.29 µg/mL,44 µg/mL,152,–,–
Cc1cn([C@H]2C[C@H](N=[N+]=[N-])[C@@H](CO)O2)c(=O)[nH]c1=O [ZIDOVUDINE],–,–,–,–,>99.96%,32 ng/mL

# — ChEMBL document CHEMBL1125065, “Synthesis and anti-HIV activity of carbocyclic 2',3'-didehydro-2',3'-dideoxy 2,6-disubstituted purine nucleosides” (J Med Chem, 1990)
